The subject of assay [1] is NCI-H820 (lung cancer cells). The assay is described as follows: Cell proliferation by MTT, NCI-H820. The class given is cell-based. To be noted: NCI-H820, read-out: NCI-H820 50% inhibitory concentration (IC50), 72 h.
Assay [2] concerns HCC827 (lung cancer cells, EGFR E746-A750 deletion). Nature of the assay: Cell proliferation by MTT, HCC827. To be noted: Homo sapiens, HCC827, read-out: HCC827 50% inhibitory concentration (IC50), 72 h. Format: cell-based.
A further assay addresses EGFRL858R (Homo sapiens, UniProt P00533, L858R). The assay is described as follows: In vitro enzymatic activity assay (Z'-LYTE), EGFR L858R. Format: biochemical. To be noted: Z'-LYTE FRET peptide assay; read-out: EGFRL858R kinase activity (IC50). The source says:
(§1) In vitro enzymatic activity assay: using Z′-LYTE™ technology (detect fluorescence, coupled-enzyme format, based on the differential sensitivity of phosphorylated and non-phosphorylated peptides to proteolytic cleavage), based on FRET, using Z′ LYTE™ FRET peptide substrate, detect the activity of compounds against enzymatic. […] After one hour, site specific protease which can recognize and cleaves non-phosphorylated FRET-peptide. After another hour, using an excitation wavelength of 400 nm excites, then detect the […] at 445 nm and 520 nm.

Assay [3] relates to H1975 (lung cancer cells, EGFR L858R&T790M). Nature of the assay: Cell proliferation by MTT, H1975. The class given is cell-based. Particulars: Homo sapiens, NCI-H1975, read-out: H1975 50% inhibitory concentration (IC50), 72 h.
Another assay deals with EGFRL861Q (Homo sapiens, UniProt P00533, L861Q). Nature of the assay: In vitro enzymatic activity assay (Z'-LYTE), EGFR L861Q. Format: biochemical. To be noted: Z'-LYTE FRET peptide assay; read-out: EGFRL861Q kinase activity (IC50).
Excerpt: as §1

The next assay concerns the target EGFRL858R + T790M (Homo sapiens, UniProt P00533, L858R/T790M). The assay is described as follows: In vitro enzymatic activity assay (Z'-LYTE), EGFR L858R + T790M. The class given is biochemical. To be noted: Z'-LYTE FRET peptide assay; read-out: EGFRL858R + T790M kinase activity (IC50).
Excerpt: as §1

Another assay has as its target EGFRWT (Homo sapiens, UniProt P00533). Nature of the assay: In vitro enzymatic activity assay (Z'-LYTE), wild type EGFR. The class given is biochemical. To be noted: Z'-LYTE FRET peptide assay; read-out: EGFRWT kinase activity (IC50).
Excerpt: as §1

The target of a further assay is T1, EGFR T790M kinase (Homo sapiens, UniProt P00533, T790M).
T1 construct: purchased invitrogen PV4803
T1 sequence (P00533 25-1210 T790M): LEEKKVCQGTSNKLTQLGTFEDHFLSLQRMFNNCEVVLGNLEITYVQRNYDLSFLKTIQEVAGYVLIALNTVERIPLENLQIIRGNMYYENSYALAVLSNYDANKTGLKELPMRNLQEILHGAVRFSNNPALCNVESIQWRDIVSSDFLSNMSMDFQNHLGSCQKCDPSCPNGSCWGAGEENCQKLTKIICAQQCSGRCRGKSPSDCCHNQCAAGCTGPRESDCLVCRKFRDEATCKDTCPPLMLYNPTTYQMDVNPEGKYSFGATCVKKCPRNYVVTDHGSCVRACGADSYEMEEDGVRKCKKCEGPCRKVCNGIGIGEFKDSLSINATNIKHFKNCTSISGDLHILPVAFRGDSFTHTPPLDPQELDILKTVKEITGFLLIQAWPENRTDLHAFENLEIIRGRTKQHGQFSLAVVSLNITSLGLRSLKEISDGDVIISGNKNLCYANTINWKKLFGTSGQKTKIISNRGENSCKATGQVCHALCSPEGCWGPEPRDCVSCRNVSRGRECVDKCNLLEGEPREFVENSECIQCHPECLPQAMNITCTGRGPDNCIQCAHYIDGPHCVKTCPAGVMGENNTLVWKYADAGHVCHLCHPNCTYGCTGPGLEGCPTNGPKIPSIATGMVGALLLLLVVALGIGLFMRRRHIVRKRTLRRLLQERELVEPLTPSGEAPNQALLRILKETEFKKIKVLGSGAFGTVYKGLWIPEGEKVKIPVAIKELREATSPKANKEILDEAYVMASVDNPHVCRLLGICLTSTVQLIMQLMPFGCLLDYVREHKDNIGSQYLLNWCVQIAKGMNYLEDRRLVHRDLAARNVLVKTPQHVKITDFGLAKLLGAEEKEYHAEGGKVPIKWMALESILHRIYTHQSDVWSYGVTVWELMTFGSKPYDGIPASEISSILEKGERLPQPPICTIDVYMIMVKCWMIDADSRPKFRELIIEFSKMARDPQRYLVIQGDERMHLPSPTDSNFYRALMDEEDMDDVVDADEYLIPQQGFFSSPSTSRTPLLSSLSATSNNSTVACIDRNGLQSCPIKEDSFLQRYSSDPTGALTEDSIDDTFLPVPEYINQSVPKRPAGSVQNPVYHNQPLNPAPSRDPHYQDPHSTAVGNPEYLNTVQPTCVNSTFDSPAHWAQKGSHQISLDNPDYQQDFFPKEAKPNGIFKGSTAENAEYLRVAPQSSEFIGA
Nature of the assay: In vitro enzymatic activity assay (Z'-LYTE), EGFR T790M. Particulars: Z'-LYTE FRET peptide assay; read-out: EGFRT790M kinase activity (IC50). The class given is biochemical.
Excerpt: as §1

Assay [4] has as its system A431 (Human epidermal carcinoma, EGFR high expression). Nature of the assay: Cell proliferation by MTT, A431. To be noted: A-431, read-out: A431 50% inhibitory concentration (IC50), 72 h. Format: cell-based.

Structures are written as SMILES.

EGFRWT, sequence (P00533 25-1210): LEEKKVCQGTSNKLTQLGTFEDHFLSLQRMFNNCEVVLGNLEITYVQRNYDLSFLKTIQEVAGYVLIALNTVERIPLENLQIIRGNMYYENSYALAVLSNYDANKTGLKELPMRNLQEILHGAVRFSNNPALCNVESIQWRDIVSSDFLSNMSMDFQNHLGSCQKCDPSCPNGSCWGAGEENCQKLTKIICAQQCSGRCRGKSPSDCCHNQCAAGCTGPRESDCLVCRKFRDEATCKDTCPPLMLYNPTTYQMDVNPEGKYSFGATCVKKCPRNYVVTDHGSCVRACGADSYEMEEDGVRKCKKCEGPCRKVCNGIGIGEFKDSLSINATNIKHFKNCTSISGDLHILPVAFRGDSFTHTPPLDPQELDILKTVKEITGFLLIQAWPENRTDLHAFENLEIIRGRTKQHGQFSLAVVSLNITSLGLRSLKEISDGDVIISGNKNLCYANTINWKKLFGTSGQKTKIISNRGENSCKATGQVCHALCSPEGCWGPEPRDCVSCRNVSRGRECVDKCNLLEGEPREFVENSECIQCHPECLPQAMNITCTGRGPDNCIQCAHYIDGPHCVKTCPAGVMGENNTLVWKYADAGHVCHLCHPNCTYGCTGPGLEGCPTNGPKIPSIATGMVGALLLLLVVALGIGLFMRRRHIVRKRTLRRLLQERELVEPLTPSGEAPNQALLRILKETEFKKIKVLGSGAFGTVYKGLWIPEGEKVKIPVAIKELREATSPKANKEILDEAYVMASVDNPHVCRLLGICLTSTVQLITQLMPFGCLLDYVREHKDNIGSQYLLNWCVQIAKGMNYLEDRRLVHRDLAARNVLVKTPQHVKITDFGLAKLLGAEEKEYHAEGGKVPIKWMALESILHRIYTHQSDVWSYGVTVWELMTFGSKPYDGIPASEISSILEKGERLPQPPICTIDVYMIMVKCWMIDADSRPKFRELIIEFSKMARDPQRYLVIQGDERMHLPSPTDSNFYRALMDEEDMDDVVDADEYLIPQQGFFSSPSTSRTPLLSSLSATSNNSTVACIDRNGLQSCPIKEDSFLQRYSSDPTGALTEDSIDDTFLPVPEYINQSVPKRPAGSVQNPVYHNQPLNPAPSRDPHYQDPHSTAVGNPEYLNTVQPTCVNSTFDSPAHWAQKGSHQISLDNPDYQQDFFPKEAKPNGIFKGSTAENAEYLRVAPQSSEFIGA
EGFRL858R + T790M, sequence (P00533 25-1210 T790M/L858R): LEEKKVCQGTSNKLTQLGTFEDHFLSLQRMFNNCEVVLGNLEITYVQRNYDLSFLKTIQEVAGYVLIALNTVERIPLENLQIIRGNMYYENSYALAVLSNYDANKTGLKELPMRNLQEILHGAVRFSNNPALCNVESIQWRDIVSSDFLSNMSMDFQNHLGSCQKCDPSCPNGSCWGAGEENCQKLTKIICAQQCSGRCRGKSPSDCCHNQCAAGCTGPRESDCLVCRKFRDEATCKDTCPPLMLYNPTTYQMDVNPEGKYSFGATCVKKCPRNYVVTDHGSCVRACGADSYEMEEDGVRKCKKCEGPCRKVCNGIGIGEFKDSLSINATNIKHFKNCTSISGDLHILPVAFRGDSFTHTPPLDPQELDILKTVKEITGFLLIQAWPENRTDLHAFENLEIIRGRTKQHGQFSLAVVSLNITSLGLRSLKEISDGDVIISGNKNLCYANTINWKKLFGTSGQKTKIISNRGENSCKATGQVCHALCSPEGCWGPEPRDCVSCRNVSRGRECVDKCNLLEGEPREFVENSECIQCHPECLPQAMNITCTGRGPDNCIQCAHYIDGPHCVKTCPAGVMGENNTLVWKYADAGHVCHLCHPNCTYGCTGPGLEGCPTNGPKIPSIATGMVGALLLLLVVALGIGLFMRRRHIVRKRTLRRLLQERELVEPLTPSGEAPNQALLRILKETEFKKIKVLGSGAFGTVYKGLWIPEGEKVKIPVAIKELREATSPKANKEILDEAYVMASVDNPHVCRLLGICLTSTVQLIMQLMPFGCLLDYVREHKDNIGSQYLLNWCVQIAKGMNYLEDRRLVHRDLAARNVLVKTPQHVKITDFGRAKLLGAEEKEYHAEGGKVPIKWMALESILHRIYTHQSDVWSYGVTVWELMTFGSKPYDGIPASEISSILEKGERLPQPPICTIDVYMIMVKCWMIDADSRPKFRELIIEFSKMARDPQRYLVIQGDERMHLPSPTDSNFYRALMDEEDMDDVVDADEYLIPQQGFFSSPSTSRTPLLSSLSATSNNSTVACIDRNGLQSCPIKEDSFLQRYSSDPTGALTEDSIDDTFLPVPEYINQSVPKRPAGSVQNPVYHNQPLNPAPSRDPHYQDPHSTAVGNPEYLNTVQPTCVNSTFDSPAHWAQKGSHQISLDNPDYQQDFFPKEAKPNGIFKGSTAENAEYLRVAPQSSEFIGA
EGFRL858R, sequence (P00533 25-1210 L858R): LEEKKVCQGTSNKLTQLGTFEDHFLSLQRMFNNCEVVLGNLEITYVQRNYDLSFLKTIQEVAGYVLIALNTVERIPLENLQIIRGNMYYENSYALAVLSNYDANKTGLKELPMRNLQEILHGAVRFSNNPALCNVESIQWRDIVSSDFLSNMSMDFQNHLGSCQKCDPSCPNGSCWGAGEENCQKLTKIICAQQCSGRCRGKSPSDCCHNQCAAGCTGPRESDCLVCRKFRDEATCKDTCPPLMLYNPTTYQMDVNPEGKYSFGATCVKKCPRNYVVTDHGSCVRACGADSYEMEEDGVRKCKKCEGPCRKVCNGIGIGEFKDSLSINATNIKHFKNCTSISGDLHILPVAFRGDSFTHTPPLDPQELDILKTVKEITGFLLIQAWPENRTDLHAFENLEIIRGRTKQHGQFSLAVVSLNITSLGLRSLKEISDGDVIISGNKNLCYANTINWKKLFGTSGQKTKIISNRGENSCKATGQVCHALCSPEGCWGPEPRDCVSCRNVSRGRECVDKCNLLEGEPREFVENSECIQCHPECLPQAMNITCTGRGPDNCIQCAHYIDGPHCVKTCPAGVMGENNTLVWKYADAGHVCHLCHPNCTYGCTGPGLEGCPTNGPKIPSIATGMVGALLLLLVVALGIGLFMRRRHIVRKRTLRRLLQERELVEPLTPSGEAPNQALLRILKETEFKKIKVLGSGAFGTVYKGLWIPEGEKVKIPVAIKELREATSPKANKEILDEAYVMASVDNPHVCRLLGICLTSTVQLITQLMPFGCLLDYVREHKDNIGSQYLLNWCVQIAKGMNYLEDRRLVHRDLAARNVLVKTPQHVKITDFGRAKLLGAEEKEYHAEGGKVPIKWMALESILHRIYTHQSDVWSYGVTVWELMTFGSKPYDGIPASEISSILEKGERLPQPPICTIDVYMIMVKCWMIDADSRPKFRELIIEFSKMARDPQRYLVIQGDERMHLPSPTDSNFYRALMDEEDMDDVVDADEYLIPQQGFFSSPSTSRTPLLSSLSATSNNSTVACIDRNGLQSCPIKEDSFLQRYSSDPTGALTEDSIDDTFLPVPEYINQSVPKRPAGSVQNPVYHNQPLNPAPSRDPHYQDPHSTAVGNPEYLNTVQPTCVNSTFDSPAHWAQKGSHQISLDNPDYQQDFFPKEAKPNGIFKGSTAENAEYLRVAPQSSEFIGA

For the compound `C=CC(=O)Nc1cccc(N2C(=O)N(C)Cc3cnc(N4CCN(C)CC4)nc32)c1` [C-EGF19, N-(3-(3-methyl-7-(4-methylpiperazin-1-yl)-2-oxo-3,4-dihydropyrimido[4,5-d]pyrimidin-1(2H)-yl)phenyl)acrylamide], the IC50 is 95.7 µM in [1]; more than 100000 nM in [2]; not below 10000 nM on EGFRL858R; 12100 nM in assay [3]; 100 to 1000 nM at EGFRL861Q; 1000 to 10000 nM at EGFRL858R + T790M. The IC50 on EGFRWT was not below 10000 nM; at EGFR T790M kinase, not below 10000 nM; in [4] it was more than 100 µM.
With `C=CC(=O)Nc1cccc(N2C(=O)N(C)Cc3cnc(NC)nc32)c1` [C-EGF21, N-(3-(3-methyl-7-(methylamino)-2-oxo-3,4-dihydropyrimido[4,5-d]pyrimidin-1 (2H)-yl)phenyl)acrylamide], the IC50 is more than 100 µM in assay [1]; 11900 nM in assay [2]; 100 to 1000 nM at EGFRL858R; 22500 nM in assay [3]; 1000 to 10000 nM on EGFRL861Q; 100 to 1000 nM on EGFRL858R + T790M. Moreover, the IC50 is 100 to 1000 nM on EGFRWT, not below 10000 nM on EGFR T790M kinase and more than 100 µM in assay [4].
`C=CC(=O)Nc1cccc(N2C(=O)N(C)Cc3cnc(Nc4ccc(OCCOC)cc4OC)nc32)c1` [C-EGF22, N-(3-(7-(2-methoxy-4-(2-methoxyethoxy)phenylamino)-3-methyl-2-oxo-3,4-dihydropyrimido[4,5-d]pyrimidin-1(2H)-yl)phenyl)acrylamide]: the IC50 in [1] is more than 100 µM; in assay [2] it was 495 nM; at EGFRL858R, not above 10 nM; in [3], 1070 nM; at EGFRL861Q, not above 10 nM; at EGFRL858R + T790M it was 10 to 100 nM. Also, the IC50 on EGFRWT was not above 10 nM; on EGFR T790M kinase, 10 to 100 nM; in assay [4] it was 24.9 µM.
On to `C=CC(=O)Nc1cccc(N2C(=O)N(C)Cc3cnc(Nc4ccc(N(C)C)cc4OC)nc32)c1` [C-EGF23, N-(3-(7-(4-(dimethylamino)-2-methoxyphenylamino)-3-methyl-2-oxo-3,4-dihydropyrimido[4,5-d]pyrimidin-1(2H)-yl)phenyl)acrylamide], for which the IC50 in [1] is more than 100 µM; in assay [2], 616 nM; at EGFRL858R, not above 10 nM; in [3] it was 3860 nM; at EGFRL861Q, not above 10 nM; at EGFRL858R + T790M, 10 to 100 nM. The IC50 on EGFRWT was not above 10 nM; at EGFR T790M kinase, 10 to 100 nM; in assay [4], 28.2 µM.
Take `C=CC(=O)Nc1cccc(N2C(=O)N(C(C)C)Cc3cnc(Nc4ccc(N5CCN(C)CC5)cc4OC)nc32)c1` [C-EGF24, N-(3-(3-isopropyl-7-(2-methoxy-4-(4-methylpiperazin-1-yl)phenylamino)-2-oxo-3,4-dihydropyrimido[4,5-d]pyrimidin-1(2H)-yl)phenyl)acrylamide]: the IC50 in assay [1] is more than 100 µM; in assay [2] it was 0.2 nM; on EGFRL858R it was not above 10 nM; in [3], 129 nM; at EGFRL861Q, not above 10 nM; on EGFRL858R + T790M it was not above 10 nM. Besides, the IC50 is not above 10 nM at EGFRWT, not above 10 nM at EGFR T790M kinase and 24.7 µM in assay [4].
`C=CC(=O)Nc1cccc(N2C(=O)N(c3ccc(OC)cc3)Cc3cnc(Nc4ccc(N5CCN(C)CC5)cc4OC)nc32)c1` [C-EGF25, N-(3-(7-(2-methoxy-4-(4-methylpiperazin-1-yl)phenylamino)-3-(4-methoxyphenyl)-2-oxo-3,4-dihydropyrimido[4,5-d]pyrimidin-1(2H)-yl)phenyl)acrylamide]: the IC50 in [1] is 54.6 µM; in [2] it was 198 nM; on EGFRL858R, not above 10 nM; in assay [3] it was 501 nM; at EGFRL861Q it was not above 10 nM; at EGFRL858R + T790M it was not above 10 nM. The figures for the IC50 (at EGFRWT; at EGFR T790M kinase; in assay [4]) were not above 10 nM, not above 10 nM and 1.23 µM, respectively.

The record behind these values is patent publication US20140296216A1, “PYRIMIDO[4,5-D]PYRIMIDINYL COMPOUNDS, PHARMACEUTICAL COMPOSITIONS AND USES THEREOF” (GUANGZHOU INSTITUTE OF BIOMEDICINE AND HEALTH, CHINESE …, priority 2011, published 2014).
